From EP4578939A1, “MYC[…]. BASED ON VARIOUS CARBON-NITROGEN METABOLIC […], METHOD FOR ISOLATING SAME, AND USE THEREOF” (Peng, Guanghao, priority 2022, dated 2024)
Structures can show the parent of a compound that is named as a salt. Where two headings read alike, the source gives them in different places.

Test system: strain YT
Experiment: inhibition of nitrification inhibitors on nitrification activity and growth
Type: cell-based, Mycobacterium sp.
Conditions: for inhibition at 5000 µM: Mycobacterium, read-out: Nitric oxide synthase (nitrification) activity inhibition rate (%); for inhibition at 5000 µM / effect on growth of strain YT / effect on nitrification activity of strain YT / NH4^+-N / NO2^--N / Nitric oxide synthase (nitrification) activity inhibition rate (%): inhibitor 5 mM; for effect on growth of strain YT: pure culture with two nitrogen sources; for effect on nitrification activity of strain YT: pure culture; for inhibition rate on nitrification activity: over the 35 days of culture
Method: The nitrogen contents of the two nitrogen sources were equal in a modified Stephenson medium with (NH4)2SO4 as a nitrogen source (NH4)2SO4 content was 2.0g/L) and a modified Stephenson medium with L-arginine hydrochloride (C6H14N4O2•HCl) as a nitrogen source (C6H14N4O2•HCl content was 1.6 g/L).
When sodium pyruvate was added as a carbon source in the design of a culture medium, 1.0M sodium pyruvate solution (the concentration was calculated in terms of pyruvic acid) was prepared firstly, the pH was adjusted to the range of 7.0-7.2, and the solution was sterilized separately for later use. Before use, 1ml of 1.0M sodium pyruvate solution was added to about 100ml of modified Stevenson culture medium with (NH4)2SO4 as a nitrogen source or L-arginine hydrochloride (C6H14N4O2•HCl) as a nitrogen source, and the pyruvic acid concentration of the culture system was designed to be 0.01M.
Four kinds of nitrification inhibitors 4-amino-1,2,4-triazole (ATC), dicyandiamide (DCD, C2H4N4), aminoguanidine hydrochloride (CH6N4•HCl), and guanylthiourea (C2H6N4S) were selected. The four nitrification inhibitors were prepared with a concentration of 500mM, respectively, after the solutions were filtered and sterilized, 1ml of the four nitrification inhibitors with a concentration of 500mM was added into the two medium with different nitrogen sources, such that the corresponding concentration of each of the nitrification inhibitors in the systems was 5 mM.
Two mediums with different nitrogen sources were respectively subjected to 5 treatments, namely without addition of an inhibitor, adding ATC, adding DCD, adding aminoguanidine hydrochloride, and adding guanylthiourea as shown in the table below; the YT system without addition of an inhibitor and the system without inoculation of strain YT and only addition of an inhibitor were respectively used as a control group; 1ml of PBS-YT bacterial liquid was inoculated, and 1ml of sterile water was used as a substitute when the inoculation of a bacterial strain was not performed. The total volume of each culture system was equal, it was about 100 ml.
1.5 Culture conditions: the culture was performed in a shaking table with a rotational speed of 180rpm at 28°C.
1.6 Measurement and calculation of indicator: the growth OD600 and pH value of thallus in the culture solution were measured every week, the contents of NH4^+-N, NO2^--N and NOx^--N were measured, the inhibition effect of the nitric oxide synthase (nitrification) activity of different culture systems were calculated and compared.
Nitric oxide synthase (nitrification) inhibition rate (%) = (NO2^--NYT concentration - NO2^--Nculture system added with an inhibitor concentration) ×100/ NO2^--NYT concentration

[1] = 504 h, strain YT, Ammonium sulfate, Culture 21 days
[2] = 504 h, strain YT, L-arginine hydrochloride, Culture 21 days
[3] = 672 h, strain YT, Ammonium sulfate, Culture 28 days
[4] = 672 h, strain YT, L-arginine hydrochloride, Culture 28 days
[5] = strain YT, Ammonium sulfate, Culture 7 days (Table 13d)
[6] = strain YT, Ammonium sulfate, Culture 14 days (Table 13d)
[7] = strain YT, Ammonium sulfate, Culture 35 days
[8] = strain YT, L-arginine hydrochloride, Culture 14 days (Table 13d)
[9] = strain YT, L-arginine hydrochloride, Culture 35 days
[10] = strain YT, L-arginine hydrochloride as nitrogen source, 7 days
[11] = strain YT, L-arginine hydrochloride as nitrogen source, 14 days
[12] = strain YT, L-arginine hydrochloride as nitrogen source, 21 days
[13] = strain YT, L-arginine hydrochloride as nitrogen source, 28 days
[14] = strain YT, L-arginine hydrochloride as nitrogen source, 35 days
[15] = strain YT, ammonium sulfate as nitrogen source, 7 days
[16] = strain YT, ammonium sulfate as nitrogen source, 14 days
[17] = strain YT, ammonium sulfate as nitrogen source, 21 days
[18] = strain YT, ammonium sulfate as nitrogen source, 28 days
[19] = strain YT, ammonium sulfate as nitrogen source, 35 days

SMILES	inhibition at 5000 µM [1] [%]	inhibition at 5000 µM [2] [%]	inhibition at 5000 µM [3] [%]	inhibition at 5000 µM [4] [%]	inhibition at 5000 µM [5] [%]	inhibition at 5000 µM [6] [%]	inhibition at 5000 µM [7] [%]	inhibition at 5000 µM [8] [%]	inhibition at 5000 µM [9] [%]	effect on growth of strain YT	effect on nitrification activity of strain YT	NH4^+-N [10] [mg/L]	NO2^--N [10] [mg/L]	NH4^+-N [11] [mg/L]	NO2^--N [11] [mg/L]	NH4^+-N [12] [mg/L]	NO2^--N [12] [mg/L]	NH4^+-N [13] [mg/L]	NO2^--N [13] [mg/L]	NH4^+-N [14] [mg/L]	other results
N=C(N)NN [Aminoguanidine hydrochloride, aminoguanidine hydrochloride]	99.4	99.8	97.2	99.5	99.2	99.7	98	99.8	99.1	can inhibit the growth	had an inhibitory effect	12.86	0	38.07	0.24	100.12	0.28	145.55	0.58	58.70	NO2^--N [14]: 1.00 mg/L; inhibition rate on nitrification activity (strain YT, L-arginine hydrochloride as nitrogen source): ≥ 99%; NH4^+-N [15]: 418.92 mg/L; NO2^--N [15]: 0 mg/L; NH4^+-N [16]: 419.06 mg/L; NO2^--N [16]: 0.01 mg/L; NH4^+-N [17]: 438.98 mg/L; NO2^--N [17]: 0.03 mg/L; NH4^+-N [18]: 448.65 mg/L; NO2^--N [18]: 0.19 mg/L; NH4^+-N [19]: 468.07 mg/L; NO2^--N [19]: 0.14 mg/L; inhibition rate on nitrification activity (strain YT, ammonium sulfate as nitrogen source): more than 97%
N=C(N)NC(N)=S [Amidinothiourea, guanylthiourea]	59.8	72.7	33.5	77.4	95.6	94.8	11	98.3	72	can obviously inhibit the growth	also exhibited inhibitory effect	8.13	0	175.90	1.72	154.73	31.10	138.43	25.70	165.02	Nitric oxide synthase (nitrification) activity inhibition rate (%) [7]: 11.07%; NO2^--N [14]: 32.26 mg/L; Nitric oxide synthase (nitrification) activity inhibition rate (%) [9]: 71.62%; NH4^+-N [15]: 395.07 mg/L; NO2^--N [15]: 0.02 mg/L; NH4^+-N [16]: 418.86 mg/L; NO2^--N [16]: 0.13 mg/L; NH4^+-N [17]: 407.33 mg/L; NO2^--N [17]: 1.64 mg/L; NH4^+-N [18]: 419.92 mg/L; NO2^--N [18]: 4.57 mg/L; NH4^+-N [19]: 422.98 mg/L; NO2^--N [19]: 6.12 mg/L; inhibition rate on nitric oxide synthase (nitrification) activities (strain YT, two nitrogen sources, before 14 days of culture): ≥ 95%
